Results from article PMC10867575, “Functional validation of novel levamisole resistance marker S168T in Haemonchus contortus” (International Journal for Parasitology: Drugs and Drug …, 2024).
Like-named read-outs stand apart in the source and are kept apart here.

Test system: T1, Hco-L-AChR-1.1 (UNC-29.1/UNC-38/UNC-63/ACR-8)
T1 construct: cRNAs co-injected in Xenopus laevis oocytes with H. contortus ancillary ric-3.1, unc-50, unc-74; wild-type clones from earlier studies; S168T acr-8 cloned from isolate MHco18 (UGA2004), vector pTB207
Experiment: two-electrode voltage clamp, Xenopus oocytes
Assay type: cell-based, Haemonchus contortus
Conditions: agonist, 100 mM NaCl, 2.5 mM KCl, 1 mM CaCl2, 5 mM HEPES, pH 7.3, currents normalised to 100 μM ACh
Source text: two-electrode voltage clamp, Xenopus oocytes on Hco-L-AChR-1.1 (UNC-29.1/UNC-38/UNC-63/ACR-8)

For `CC(=O)OCC[N+](C)(C)C` [ACh, acetylcholine], the EC50 (read-out: ACh EC50) was 4.2 ± 1.1 µM.

In the case of `c1ccc([C@H]2CN3CCSC3=N2)cc1` [LEV, levamisole], the EC50 (read-out: LEV EC50) is reported as 3.2 ± 1.1 µM.
